From paper PMC12446476 (Nature Communications, 2025)
Values after ≈ are worked out from the molar mass of the structure shown.

Experiments:
N. gonorrhoeae = test: In vitro time-kill assay; format: cell-based, Neisseria gonorrhoeae
Text: The 2024 WHO N. gonorrhoeae reference strains were used for quality control. Only whole MIC doubling dilutions are reported. Clinical breakpoints or the epidemiological cutoff (ECOFF, to indicate azithromycin resistance) from EUCAST (v14.0, https://www.eucast.org/clinical_breakpoints) were used to classify isolates as antimicrobial susceptible or resistant. […] Two times the standard inoculum defined by CLSI was used to establish consistent growth in untreated control samples for some strains. In vitro time-kill assays were performed according to CLSI guidelines[65] using Columbia Broth (BD Difco) supplemented with 1% IsoVitaleX Enrichment (BD). Viable bacterial counts were generated by plating 10-fold serially diluted samples on GC agar plates containing 1% IsoVitaleX Enrichment (BD).

S. aureus = test: MIC determination for S. aureus, broth dilution; format: cell-based; conditions: Staphylococcus aureus, ATCC29213; S. aureus ATCC 29213

Cc1c(CN(C)C(=O)/C=C/c2cnc3c(c2)N[C@H](C)[C@H](O)C(=O)N3)oc2ccccc12 [Debio 1453]
Log10CFU/ml (time kill) (N. gonorrhoeae; AR Bank0175, 16X MIC, 1 hr): 5.41 Log10CFU/ml
Log10CFU/ml (time kill) (N. gonorrhoeae; AR Bank0175, 16X MIC, 3 hr): 4.92 Log10CFU/ml
Log10CFU/ml (time kill) (N. gonorrhoeae; AR Bank0175, 16X MIC, 6 hr): 3.81 Log10CFU/ml
Log10CFU/ml (time kill) (N. gonorrhoeae; AR Bank0175, 16X MIC, 10 hr): 3.23 Log10CFU/ml
Log10CFU/ml (time kill) (N. gonorrhoeae; AR Bank0175, 16X MIC, 24 hr): 1.95 Log10CFU/ml
Log10CFU/ml (time kill) (N. gonorrhoeae; AR Bank0179, 2X MIC, 0 hr): 5.66 Log10CFU/ml
Log10CFU/ml (time kill) (N. gonorrhoeae; AR Bank0179, 2X MIC, 1 hr): 5.63 Log10CFU/ml
Log10CFU/ml (time kill) (N. gonorrhoeae; AR Bank0179, 2X MIC, 3 hr): 5.09 Log10CFU/ml
Log10CFU/ml (time kill) (N. gonorrhoeae; AR Bank0179, 2X MIC, 6 hr): 4.63 Log10CFU/ml
Log10CFU/ml (time kill) (N. gonorrhoeae; AR Bank0179, 2X MIC, 10 hr): 2.00 Log10CFU/ml
Log10CFU/ml (time kill) (N. gonorrhoeae; AR Bank0179, 2X MIC, 24 hr): 1.95 Log10CFU/ml
Log10CFU/ml (time kill) (N. gonorrhoeae; AR Bank0179, 4X MIC, 0 hr): 5.46 Log10CFU/ml
Log10CFU/ml (time kill) (N. gonorrhoeae; AR Bank0179, 4X MIC, 1 hr): 5.53 Log10CFU/ml
Log10CFU/ml (time kill) (N. gonorrhoeae; AR Bank0179, 4X MIC, 3 hr): 4.84 Log10CFU/ml
Log10CFU/ml (time kill) (N. gonorrhoeae; AR Bank0179, 4X MIC, 6 hr): 3.98 Log10CFU/ml
Log10CFU/ml (time kill) (N. gonorrhoeae; AR Bank0179, 4X MIC, 10 hr): 1.95 Log10CFU/ml
Log10CFU/ml (time kill) (N. gonorrhoeae; AR Bank0179, 4X MIC, 24 hr): 1.95 Log10CFU/ml
Log10CFU/ml (time kill) (N. gonorrhoeae; AR Bank0179, 8X MIC, 0 hr): 5.74 Log10CFU/ml
Log10CFU/ml (time kill) (N. gonorrhoeae; AR Bank0179, 8X MIC, 1 hr): 5.30 Log10CFU/ml
Log10CFU/ml (time kill) (N. gonorrhoeae; AR Bank0179, 8X MIC, 3 hr): 4.73 Log10CFU/ml
Log10CFU/ml (time kill) (N. gonorrhoeae; AR Bank0179, 8X MIC, 6 hr): 3.88 Log10CFU/ml
Log10CFU/ml (time kill) (N. gonorrhoeae; AR Bank0179, 8X MIC, 10 hr): 1.95 Log10CFU/ml
Log10CFU/ml (time kill) (N. gonorrhoeae; AR Bank0179, 8X MIC, 24 hr): 1.95 Log10CFU/ml
Log10CFU/ml (time kill) (N. gonorrhoeae; AR Bank0179, 16X MIC, 0 hr): 5.69 Log10CFU/ml
Log10CFU/ml (time kill) (N. gonorrhoeae; AR Bank0179, 16X MIC, 1 hr): 5.23 Log10CFU/ml
Log10CFU/ml (time kill) (N. gonorrhoeae; AR Bank0179, 16X MIC, 3 hr): 4.75 Log10CFU/ml
Log10CFU/ml (time kill) (N. gonorrhoeae; AR Bank0179, 16X MIC, 6 hr): 3.67 Log10CFU/ml
Log10CFU/ml (time kill) (N. gonorrhoeae; AR Bank0179, 16X MIC, 10 hr): 1.95 Log10CFU/ml
Log10CFU/ml (time kill) (N. gonorrhoeae; AR Bank0179, 16X MIC, 24 hr): 1.95 Log10CFU/ml
Log10CFU/ml (time kill) (N. gonorrhoeae; ATCC 49226, 2X MIC, 0 hr): 6.10 Log10CFU/ml
Log10CFU/ml (time kill) (N. gonorrhoeae; ATCC 49226, 2X MIC, 1 hr): 5.92 Log10CFU/ml
Log10CFU/ml (time kill) (N. gonorrhoeae; ATCC 49226, 2X MIC, 3 hr): 5.64 Log10CFU/ml
Log10CFU/ml (time kill) (N. gonorrhoeae; ATCC 49226, 2X MIC, 6 hr): 4.51 Log10CFU/ml
Log10CFU/ml (time kill) (N. gonorrhoeae; ATCC 49226, 2X MIC, 10 hr): 2.60 Log10CFU/ml
Log10CFU/ml (time kill) (N. gonorrhoeae; ATCC 49226, 2X MIC, 24 hr): 1.95 Log10CFU/ml
Log10CFU/ml (time kill) (N. gonorrhoeae; ATCC 49226, 4X MIC, 0 hr): 6.07 Log10CFU/ml
Log10CFU/ml (time kill) (N. gonorrhoeae; WHO V, 2X MIC, 0 hr): 5.66 Log10CFU/ml
Log10CFU/ml (time kill) (N. gonorrhoeae; WHO V, 2X MIC, 1 hr): 5.58 Log10CFU/ml
Log10CFU/ml (time kill) (N. gonorrhoeae; WHO V, 2X MIC, 3 hr): 4.90 Log10CFU/ml
Log10CFU/ml (time kill) (N. gonorrhoeae; WHO V, 2X MIC, 6 hr): 4.14 Log10CFU/ml
Log10CFU/ml (time kill) (N. gonorrhoeae; WHO V, 2X MIC, 10 hr): 3.53 Log10CFU/ml
Log10CFU/ml (time kill) (N. gonorrhoeae; WHO V, 2X MIC, 24 hr): 1.95 Log10CFU/ml
Log10CFU/ml (time kill) (N. gonorrhoeae; WHO V, 4X MIC, 0 hr): 5.59 Log10CFU/ml
Log10CFU/ml (time kill) (N. gonorrhoeae; WHO V, 4X MIC, 1 hr): 5.34 Log10CFU/ml
Log10CFU/ml (time kill) (N. gonorrhoeae; WHO V, 4X MIC, 3 hr): 4.37 Log10CFU/ml
Log10CFU/ml (time kill) (N. gonorrhoeae; WHO V, 4X MIC, 6 hr): 4.03 Log10CFU/ml
Log10CFU/ml (time kill) (N. gonorrhoeae; WHO V, 4X MIC, 10 hr): 2.00 Log10CFU/ml
Log10CFU/ml (time kill) (N. gonorrhoeae; WHO V, 4X MIC, 24 hr): 1.95 Log10CFU/ml
Log10CFU/ml (time kill) (N. gonorrhoeae; WHO V, 8X MIC, 0 hr): 5.60 Log10CFU/ml
Log10CFU/ml (time kill) (N. gonorrhoeae; WHO V, 8X MIC, 1 hr): 4.90 Log10CFU/ml
Log10CFU/ml (time kill) (N. gonorrhoeae; WHO V, 8X MIC, 3 hr): 4.34 Log10CFU/ml
Log10CFU/ml (time kill) (N. gonorrhoeae; WHO V, 8X MIC, 6 hr): 4.03 Log10CFU/ml
Log10CFU/ml (time kill) (N. gonorrhoeae; WHO V, 8X MIC, 10 hr): 1.95 Log10CFU/ml
Log10CFU/ml (time kill) (N. gonorrhoeae; WHO V, 8X MIC, 24 hr): 1.95 Log10CFU/ml
Log10CFU/ml (time kill) (N. gonorrhoeae; WHO V, 16X MIC, 0 hr): 5.81 Log10CFU/ml
Log10CFU/ml (time kill) (N. gonorrhoeae; WHO V, 16X MIC, 1 hr): 5.00 Log10CFU/ml
Log10CFU/ml (time kill) (N. gonorrhoeae; WHO V, 16X MIC, 3 hr): 4.27 Log10CFU/ml
reduction in viable CFU counts (N. gonorrhoeae; within 24 h, all concentrations tested, as low as 2× MIC, 10 isolates): ≥ 3 log10
MIC (S. aureus): 8 ng/mL (≈ 0.019 µM)
